# Entries after “also recorded” stand apart in the source; their conditions may differ. Where two headings read alike, the source gives them in different places.
# What was measured:
# ERK = assay: IL-1β induced MAP kinase activation, ERK (phospho Western blot); format: cell-based, human; details: induced by IL-1β
# Method: (§1) Whole cell extracts were prepared from 3 x 10^6 chondrocytes stimulated as described above by lysing the cells on the plate with ice cold lysis buffer (10 mM TrisHCl pH 7.6, 158 mM NaCl, 1 mM EDTA, 0.1% SDS, 1% Triton X-100, leupeptin […], aprotinin 1µg/ml, and 0.5 mM PMSF), which was added immediately before use. The lysates were transferred to Eppendorf tubes and centrifuged at 20,000 g for 30 min at 4 °C. The supernatants were transferred into fresh tubes, and the protein concentration was determined by Bradford assay. Similar amounts of protein were separated by 10% SDS PAGE and transferred to a nitrocellulose filter (Schleicher & Schuell, Keene, NH) by electroblotting. The filter was blocked overnight in 5% milk powder/TBS-T solution and then further incubated with one of the following antibodies: anti-iNOS (C-19, Santa Cruz Biotechnology, Inc., Santa Cruz, CA), anti-COX-2 (Cayman Chemical, Ann Arbor, MI), anti-COX-1 (H-3, Santa Cruz Biotechnology, Inc.), anti-phospho-JNK (phosphoThr 183 /Tyr 185, New England Biolabs, Inc., Beverly, MA), anti-phospho-p38MAP (phospho-Thr […]/Tyr 182, New England Biolabs, Inc.) or anti-phospho-ERK (phosphoThr 180/Tyr 182, New England Biolabs, Inc.) for 2 hrs. […]
# JNK = assay: IL-1β induced MAP kinase activation, JNK (phospho Western blot); format: cell-based, human; details: induced by IL-1β
# Method: as §1
# [1] = In vivo retention of GlcNAc in knee joints after intra-articular administration; parameters: species or system Wistar rats
# Method: 50 µl of GlcNAc solution (unlabeled 2.69 mg/ml, labeled 5 µCi/ml, unlabeled:labeled molecule 10,000:1) was injected into knee joint of six rats. These rats (2 animals/time point) were sacrificed at 0, 30 min, and 2 hr after administration of a GlcNAc solution. Two other two rats were injected with normal saline as negative controls. All joints were removed and homogenized with 5 ml of normal saline at 16,000 rpm for about 30 sec. 100 µl of the tissue homogenate was added to 500 µl tissue solubilizer. The solution was incubated at 50 °C for 16 hrs, mixed with 30 µl of glacial acetic acid and 5 ml of liquid scintillation cocktail. The [^3H]GlcNAc activity was measured by a liquid scintillation counter.
# Fourteen rats were used for each liposomal formulation. 50 µl of liposome (prepared as disclosed herein, 1.13 µCi/ml, GlcNAc concentration was 0.61 mg/ml, unlabeled:labeled molecule 10,000:1) was injected into each knee joint in twelve rats. Another two rats were injected with 50 µl of normal saline as negative controls. Animals (2 rats/time point) were sacrificed at time points corresponding to 0, 1, 3, 7, 14, 21, and 28 days after administration of GlcNAc. The knee joints were removed and [^3H]GlcNAc activity was determined as disclosed herein.
# bradykinin-induced pain = assay: Bradykinin-induced pain after intra-articular administration (walking behavior pain score); format: in vivo; details: Wistar rats, Figure 7
# Method: The purpose of this study was to investigate the analgesic effects of GlcNAc with or without liposomal formulations, injected intra-articularly into the joint of Wistar rats. Pain was induced by intra-articular administration of bradykinin. Adult male Wistar rats with a weight range from 220g to 250g were obtained from Laboratory Animals Centre, National University of Singapore. Bradykinin and GlcNAc were obtained from Sigma. The liposomes were prepared as described above. 50 µl of GlcNAc solution or an GIcNAc formulated liposome suspension was injected into a rat joint cavity. An equal volume of saline was given intra-articularly as a control. 50 µl of bradykinin (60 µg/ml or at the indicated concentration) was given intra-articularly at different time points following the administration of GlcNAc. Changes in walking behavior caused by intra-articular injection of bradykinin were used to define induced pain criteria in rats. The methods used to observe the pain response are defined in Table 2. The degree of pain was assigned a score according to the criteria in Table 3. Table 2 [table] [table]
# chondrocytes = assay: Cell viability, MTT assay; format: cell-based, human; details: up to 20 mM
# [2] = test system: IL-1β induced NO production in normal human articular chondrocytes; assay: IL-1β induced NO production in cultured chondrocytes (NO2 accumulation, Griess reaction); format: cell-based
# Method: Chondrocytes were isolated from the cartilage by collagenase digestion and maintained in continuous monolayer cultures in DMEM containing 10% fetal bovine serum (FBS). Cell viability after chondrocyte isolation by collagenase digestion of normal cartilage was >95%. This level was maintained for at least 96 hrs post mortem. […] Experiments reported were performed with primary or first passage cells.
# (§2) Chondrocytes were plated at 40,000 cells/well in 96-well plates in the presence of 1 % FBS. After 48 h, the medium was changed, and the cells were stimulated with IL-1β (Sigma) at a concentration of 5 ng/ml for 24 h. NO production was detected as NO2 accumulation in the culture supernatants by the Griess reaction as described elsewhere (Heval et al., (1994) Methods Enzymol. 233:250). IL-6 in the culture supernatants was measured by ELISA (R&D Systems, Minneapolis, MN) in accordance with the supplier's protocol.
# IL-6 = IL-6 production in IL-1β stimulated chondrocytes (ELISA); format: cell-based, human; details: p < 0.001
# Method: as §2
# [3] = Induction of TGFα1 in chondrocytes with IL-1β; format: cell-based, human; details: together with IL-1β
# COX-1 protein = COX-1 protein expression in chondrocytes (Western Immunoblot); format: cell-based, human
# Method: as §1
# COX-2 protein = COX-2 protein expression in IL-1β stimulated chondrocytes (Western Immunoblot); format: cell-based, human
# Method: as §1
smiles,measurement,setting,value
"CC(=O)N[C@H]1C(O)O[C@H](CO)[C@@H](O)[C@@H]1O (some centres unmarked) [GlcNAc, N-acetylglucosamine]",ERK MAP kinase activation,ERK,does not inhibit
same,JNK MAP kinase activation,JNK,does not inhibit
same,half-life,"[1]; Wistar, rat, knee joint homogenate, 0.1345 mg per knee joint, single intra-articular administration, saline solution",4.1 min
same,GlcNAc retention at the rat knee joints,[1]; after intra-articular administration,moved out of the rat joint rapidly
same,analgesic effects on bradykinin-induced pain (pain scores),bradykinin-induced pain,"small, but statistically insignificantly, analgesic effects; also recorded: small, but statistically insignificant, analgesic effects"
same,cell viability,chondrocytes,Neither GA nor GlcNAc at dosages up to 20 mM affected cell viability
same,NO production triggered by IL-1β,[2],suppressed NO production; also recorded: stronger inhibition of NO production than GA
same,concentration of maximal inhibitory effect on NO production,[2],20 mM
same,concentrations not effective in inhibiting NO production,[2],lower than 1 mM
same,IC50,"[2]; Homo sapiens, Chondrocyte, IL-1β 5 ng/ml for 24 h, GlcNAc vs GA p < 0.01, read-out: IC50 (inhibition of NO production)",4.1 ± 1.3 mM
same,inhibitory activity on IL-1β induced NO production,[2]; concentration of 10 mM,demonstrated inhibitory activity
same,NO production triggered by IL-1β,[2]; listed as GIcNAc,measurably inhibited NO production in the lower millimolar range
same,concentrations not effective in inhibiting NO production,[2]; listed as GIcNAc,below 1 mM
same,IL-6 production,IL-6,inhibited
same,induction of TGFα1,[3],synergistic with IL-1β
same,expression of the constitutively expressed COX-1 protein,COX-1 protein,did not affect
same,expression of COX-2 protein,COX-2 protein,inhibited

# Source: patent publication EP1379135B1, “FORMULATIONS COMPRISING ENTRAPPED ACTIVE INGREDIENTS AND USES THEREOF” (THE SCRIPPS RESEARCH INSTITUTE, priority 2001, dated 2002)
